In publication PMC12469971 (Gels, 2025):
In brackets after ≈: the same amount, converted by molar mass. Several values for one entry are separate records, joined by “and”; a condition that tells them apart may be missing. Equal entries are not always repeated. Where two headings read alike, the source gives them in different places. One block for each molecule: values may come before it.

How the values were obtained:
[1] = Antioxidant activity, DPPH assay; format: biochemical; conditions: not UV-irradiated; curcumin concentration; 40 min
Experimental: The samples were vortexed for 20 to 30 s, and their absorbance was measured at 517 nm after 40 min using a UV spectrophotometer (BOECO S-22) (BOECO, Hamburg, Germany). Ethanol is used for calibration, and ascorbic acid serves as a standard for antioxidant activity.
The percentage of DPPH inhibition for each sample type was determined, and the IC50 values were calculated based on the concentration (μg/mL) vs. inhibition plots. Ascorbic acid was used as a standard. All measurements were performed in triplicate at room temperature.

[2] = system: V79-4 normal cell line; assay: Cell apoptosis by Annexin V-FITC/PI flow cytometry; format: cell-based, Cricetulus griseus; conditions: V79-4, 7.5 µg/mL, 24 h
From the text: (§1) The possible mechanism of action for the analyzed nanoparticles was established by determining the process of cellular apoptosis using flow cytometry, a method that enabled the assessment of the percentage of live, dead, pre-apoptotic, and apoptotic cells (Table S2 and Figure 8).
(§2) Apoptosis, also known as programmed cell death, is a natural process for eliminating cells. It involves the formation of membrane vesicles, chromatin condensation, and DNA fragmentation. Annexin V, which is a calcium-dependent protein, binds with high affinity to phosphatidylserine (PS), which moves from the inner to the outer membrane during apoptosis. When Annexin V is fluorescently labeled, this PS exposure can be detected using flow cytometry. The presence of PS signals macrophages to clear the cell through phagocytosis. […] In late apoptotic and necrotic cells, both the plasma and nuclear membrane integrity is compromised, enabling propidium iodide to penetrate the membrane, bind to nucleic acids, and produce red fluorescence. Cells were cultured in 24-well plates at a density of 50,000 cells per well to create a monolayer. After 24 h of incubation, test compounds (free drugs or nanoparticle formulations) were applied at a concentration of 7.5 µg/mL and incubated for an additional 24 h. Flow cytometry was used to process and analyze the cells according to the manufacturer’s instructions for the assay kit. For interpretation, cells that were negative for both propidium iodide (PI) and Annexin V were classified as viable; cells that were Annexin V-positive and PI-negative were considered apoptotic; and cells that were positive for both markers were identified as necrotic.

[3] = Light stability of free and encapsulated curcumin (natural light and air); format: physicochemical
Experimental: The analyzed HSA nanoparticles were weighed and then exposed to air and natural light for 30 days in Petri dishes. […] All determinations were performed in triplicate, and the results are presented as mean values ± standard deviation (STDev).

[4] = PAMPA-BBB permeability assay (kit PMBBB-096); format: in vitro ADME; conditions: for Papp at 18 h, 500 μM: PAMPA, 37 °C
Experimental: The in vitro parallel artificial permeability assay (PAMPA, Kit PMBBB-096 from BioAssay Systems (Hayward, CA, USA)) was employed to evaluate whether nanoparticles can cross the BBB. […] As a negative standard, we used the low-permeability (LP) and high-permeability (HP) standards from the PAMPA-BBB kit from Bioassay.
Specifically, the PMBBB-096 (BioAssay Systems Hayward, CA, USA) kit supports in vitro assessment of BBB permeability. […] Three hundred microliters (300 μL) of 0.01 M PBS with 5% DMSO was added to the acceptor plate (96-well PTFE acceptor plates) (BioAssay Systems Hayward, CA, USA). The donor plate (96-well polycarbonate filter-based donor plates, pore size 0.45 μm) was coated with 5 μL of lyophilized brain lipid extract solution, made by dissolving the brain extract in 400 μL of dodecane. […] In parallel, 200 μM equilibrium standards were prepared in separate Eppendorf tubes for each test and control sample. In Eppendorf tubes, 80 μL of test solutions or the control standard at a concentration of 500 μM were mixed with 120 μL of PBS solution containing 5% DMSO. The blank was prepared using the PBS solution with 5% DMSO. The next day, equilibrium standards and the blank solution were utilized, and the acceptor compartment’s solution was analyzed. […] Based on the absorbance value determined for each respective test sample and the permeability control standard, the permeability rate (Pe) was calculated using the following Equation (4):(4) Pe=C×−ln1−ODA/ODE,cm/s where ODA represents the absorbance of the acceptor plate solution minus the absorbance of the blank, and ODE indicates the absorbance of the equilibrium standard minus the absorbance of the blank.

[5] = system: C6 tumor cells; assay: Cytotoxicity, MTT assay; conditions: for viability at 1.875 µg/mL / viability at 3.75 µg/mL / viability at 7.5 µg/mL / viability at 15 µg/mL / IC50: Rattus norvegicus; for viability at 1.875 µg/mL / viability at 3.75 µg/mL / viability at 7.5 µg/mL / viability at 15 µg/mL / Percentage of dead cells per C6 cell line (cytotoxic effect): 48 h; for viability at 1.875 µg/mL: read-out: Cell viability (%) C6, 1.875 μg/mL (nanoparticles or free drug), 48 h; for viability at 3.75 µg/mL: read-out: Cell viability (%) C6, 3.75 μg/mL, 48 h; for viability at 7.5 µg/mL: read-out: Cell viability (%) C6, 7.5 μg/mL, 48 h; for viability at 15 µg/mL: read-out: Cell viability (%) C6, 15 μg/mL, 48 h; for IC50: C6, 48 h
Experimental: (§3) This IC50 value was derived from a graph plotting the percentage of dead cells against the drug concentration in the samples. […] A lower IC50 value indicates the higher cytotoxicity of the samples.
(§4) In both cases, the growth media were supplemented with 10% fetal bovine serum (SFB, Euroclone S.p.A., Milan, Italy) and 1% antibiotic solution, containing penicillin at […] and streptomycin at 100 IU/mL (Capricorn Scientific GmbH, Ebsdorfergrund, Germany), maintained at a temperature of 37 °C in a humidified environment with 5% CO2 [130]. Products tested: Albumin nanoparticles obtained through self-assembly and crosslinking with OG were evaluated.
(§5) This method relies on the conversion of MTT, a water-soluble yellow compound, into dark blue, water-insoluble formazan by the mitochondrial dehydrogenases of living cells. […] After treatment, the medium was removed, the cells were washed with phosphate-buffered saline (PBS), and then incubated with 100 μL of fresh medium and 10 μL of MTT (5 mg/mL) for 3 h at 37 °C. The resulting formazan crystals were solubilized with 50 μL of DMSO, and absorbance was measured at 570 nm using the EZ Read 400 reader (Biochrom, Cambridge, UK). The intensity of the resulting color directly correlates with the number of viable cells, and viability was calculated using Equation (6):Cell viability (%) = Esample/Econtrol × 100, where E = extinction(6)

[6] = system: normal V79-4 cells; assay: Cytotoxicity, MTT assay; conditions: for Percentage of dead cells per V79-4 cell line (cytotoxic effect): 48 h; for IC50: Cricetulus griseus, V79-4, 48 h
Experimental: as §3, §4, §5

[7] = Cytotoxicity, MTT assay; conditions: Chinese hamster, V79-4 lung fibroblasts (ATCC CCL-93), 48 h; for viability at 48 h, 1.875 μg/mL: Cell viability (%) V79-4, 1.875 μg/mL (nanoparticles or free drug); for viability at 48 h, 3.75 μg/mL: Cell viability (%) V79-4, 3.75 μg/mL; for viability at 48 h, 7.5 μg/mL: Cell viability (%) V79-4, 7.5 μg/mL; for viability at 48 h, 15 μg/mL: Cell viability (%) V79-4, 15 μg/mL
Experimental: as §3, §4, §5

[8] = system: C6 tumor cell line; assay: Cell apoptosis by Annexin V-FITC/PI flow cytometry; format: cell-based, Rattus norvegicus; conditions: C6, 7.5 µg/mL, 24 h
From the text: as §1, §2

[9] = pH stability of free and encapsulated curcumin; format: physicochemical; set-up: degradation rate constant k: unit: h⁻¹; conditions: dark; for half-life at 4 μg/mL: read-out: degradation half-life t1/2 (converted)
Experimental: The samples were maintained at 37 °C in the dark, in closed containers, for 8 h. […] The particles were maintained at 37 °C in an oven (AG-System, F.lli Galli G. & P., Milano, Italia) protected from light and air exposure. […] The amount of curcumin found in the samples was then determined using a Nanodrop spectrophotometer. […] The half-life (t1/2) for first-order reactions depends solely on the degradation rate constant, k, and is independent of the substance’s initial concentration. All measurements were conducted in triplicate, and the results are reported as average values ± standard deviation (STDev).

[10] = set-up: method as in PMID 32494134, PMID 35684445, PMID 25751368; conditions: rapidly hydrolyzed in physiological conditions; cited from earlier work
[11] = read-out: IC50 μg/mL for TMZ/CURC on the C6 Cell Line
[12] = read-out: IC50 μg/mL for TMZ/CURC on the V79-4 Cell Line

IC50 (DPPH) [1]: 4.3 mg/L (≈ 24.4 µM)
SMILES: O=C1O[C@H]([C@@H](O)CO)C(O)=C1O [Ascorbic acid, ascorbic acid]

Percentage of Degradation of curcumin, Day 3 [3]: 6.8%
Percentage of Degradation of curcumin, Day 10 [3]: 13.5%
Percentage of Degradation of curcumin, Day 18 [3]: 16.9%
Percentage of Degradation of curcumin, Day 26 [3]: 26%
Percentage of Degradation of curcumin, Day 30 [3]: 32.3%
Papp at 18 h, 500 μM ([4]; pH 7.4, Permeability rate, Pe (Curcumin), PAMPA-BBB, read at 425 nm): 2.1 nm/s
half-life at 4 μg/mL ([9]; buffer solution (pH 3), pH 3, 37 °C): 7.7 h
half-life at 4 μg/mL ([9]; buffer solution (pH 9), pH 9, 37 °C): 2.3 h
half-life at 4 μg/mL ([9]; buffer solution, pH 6.8, 37 °C): 6.5 h
half-life at 4 μg/mL ([9]; buffer solution, pH 7.4, 37 °C): 5.8 h
Undegraded Curcumin (%) 1 h ([9]; pH 3, 37 °C): 76%
Undegraded Curcumin (%) 5 h ([9]; pH 3, 37 °C): 55.7%
Undegraded Curcumin (%) 8 h ([9]; pH 3, 37 °C): 47.6%
degradation rate constant k ([9]; pH 3, 37 °C): 0.091
Undegraded Curcumin (%) 1 h ([9]; pH 6.8, 37 °C): 76.4%
Undegraded Curcumin (%) 5 h ([9]; pH 6.8, 37 °C): 56.8%
Undegraded Curcumin (%) 8 h ([9]; pH 6.8, 37 °C): 43.7%
degradation rate constant k ([9]; pH 6.8, 37 °C): 0.107
Undegraded Curcumin (%) 1 h ([9]; pH 7.4, 37 °C): 77%
Undegraded Curcumin (%) 5 h ([9]; pH 7.4, 37 °C): 52.7%
Undegraded Curcumin (%) 8 h ([9]; pH 7.4, 37 °C): 41.1%
degradation rate constant k ([9]; pH 7.4, 37 °C): 0.119
Undegraded Curcumin (%) 1 h ([9]; pH 9, 37 °C): 61%
Undegraded Curcumin (%) 5 h ([9]; pH 9, 37 °C): 21%
Undegraded Curcumin (%) 8 h ([9]; pH 9, 37 °C): 8.6%
degradation rate constant k ([9]; pH 9, 37 °C): 0.301
SMILES: COc1cc(/C=C/C(=O)CC(=O)/C=C/c2ccc(O)c(OC)c2)ccc1O [Curcumin, curcumin]
Apoptotic cells (%) [2]: 27.09%
Dead cells (%) [2]: 17.93%
Living cells (%) [2]: 43.47%
viability at 1.875 µg/mL [5]: 62.3%
viability at 3.75 µg/mL [5]: 55.8%
viability at 7.5 µg/mL [5]: 39.2%
viability at 15 µg/mL [5]: 37.4%
IC50 [5, 11]: 6.31 µg/mL (≈ 17.1 µM)
IC50 ([5]; read-out: IC50 for μg/mL for CURC on the C6 Cell Line): 6.31 µg/mL (≈ 17.1 µM)
Percentage of dead cells per C6 cell line (cytotoxic effect) ([5]; rat, 1.875 μg/mL): 37.66%
Percentage of dead cells per C6 cell line (cytotoxic effect) ([5]; rat, 3.75 μg/mL): 44.22%
Percentage of dead cells per C6 cell line (cytotoxic effect) ([5]; rat, 7.5 μg/mL): 60.84%
Percentage of dead cells per C6 cell line (cytotoxic effect) ([5]; rat, 15 μg/mL): 62.63%
Percentage of dead cells per V79-4 cell line (cytotoxic effect) ([6]; 1.875 μg/mL): 24.21%
Percentage of dead cells per V79-4 cell line (cytotoxic effect) ([6]; 3.75 μg/mL): 39.14%
Percentage of dead cells per V79-4 cell line (cytotoxic effect) ([6]; 7.5 μg/mL): 47.33%
Percentage of dead cells per V79-4 cell line (cytotoxic effect) ([6]; 15 μg/mL): 58.41%
IC50 ([6]; read-out: IC 50 μg/mL for CURC on the V79-4 Cell Line): 10.4 µg/mL (≈ 28.1 µM)
IC50 [6, 12]: 10.4 µg/mL (≈ 28.1 µM)
viability at 48 h, 1.875 μg/mL [7]: 75.8%
viability at 48 h, 3.75 μg/mL [7]: 60.9%
viability at 48 h, 7.5 μg/mL [7]: 52.7%
viability at 48 h, 15 μg/mL [7]: 41.6%
Apoptotic cells (%) [8]: 35.64%
Dead cells (%) [8]: 14.33%
Living cells (%) [8]: 37.92%
Preapoptotic cells (%) [8]: 12.11%

SMILES: Cn1nnc2c(C(N)=O)ncn2c1=O [TMZ, temozolomide]
Apoptotic cells (%) [2]: 24.86%
Dead cells (%) [2]: 15.17%
Living cells (%) [2]: 49.36%
Preapoptotic cells (%) [2]: 10.61%
Papp at 18 h, 500 μM ([4]; pH 7.4, PAMPA-BBB, read at 327 nm, read-out: Permeability rate, Pe (TMZ)): 7.6 nm/s
BBB permeability category ([4]; PAMPA-BBB, in words): low permeability
Percentage of dead cells per C6 cell line (cytotoxic effect) ([5]; 1.875 μg/mL): 37.7% and 34.88%
Percentage of dead cells per C6 cell line (cytotoxic effect) ([5]; 3.75 μg/mL): 42.5%
Percentage of dead cells per C6 cell line (cytotoxic effect) ([5]; 7.5 μg/mL): 47.05%
Percentage of dead cells per C6 cell line (cytotoxic effect) ([5]; 15 μg/mL): 60.95% and 59.18%
viability at 1.875 µg/mL [5]: 62.3%
viability at 3.75 µg/mL [5]: 57.5%
viability at 7.5 µg/mL [5]: 53%
viability at 15 µg/mL [5]: 39%
IC50 ([5]; read-out: IC50 μg/mL for TMZ on the C6 Cell Line): 8.75 µg/mL (≈ 45.1 µM)
IC50 [5, 11]: 8.75 µg/mL (≈ 45.1 µM)
Percentage of dead cells per V79-4 cell line (cytotoxic effect) ([6]; 1.875 μg/mL): 24.16%
Percentage of dead cells per V79-4 cell line (cytotoxic effect) ([6]; 3.75 μg/mL): 33.05%
Percentage of dead cells per V79-4 cell line (cytotoxic effect) ([6]; 7.5 μg/mL): 39.64%
Percentage of dead cells per V79-4 cell line (cytotoxic effect) ([6]; 15 μg/mL): 45.53%
IC50 ([6]; read-out: IC50 μg/mL for TMZ on the V79-4 Cell Line): 16.8 µg/mL (≈ 86.7 µM)
IC50 [6, 12]: 16.8 µg/mL (≈ 86.7 µM)
viability at 48 h, 1.875 μg/mL [7]: 75.8%
viability at 48 h, 3.75 μg/mL [7]: 67%
viability at 48 h, 7.5 μg/mL [7]: 60.4%
viability at 48 h, 15 μg/mL [7]: 54.5%
Apoptotic cells (%) [8]: 33.59%
Dead cells (%) [8]: 16.45%
Living cells (%) [8]: 40.08%
Preapoptotic cells (%) [8]: 9.88%
half-life [10]: 1.8 h
